This note sets out measurements from US11628162B2, “Methods of treating cancer with an FGFR inhibitor” (Incyte Corporation, priority 2019, dated 2023).

One series addresses T1, CYP1A2 (Homo sapiens, UniProt P05177).
T1 sequence (P05177 1-516): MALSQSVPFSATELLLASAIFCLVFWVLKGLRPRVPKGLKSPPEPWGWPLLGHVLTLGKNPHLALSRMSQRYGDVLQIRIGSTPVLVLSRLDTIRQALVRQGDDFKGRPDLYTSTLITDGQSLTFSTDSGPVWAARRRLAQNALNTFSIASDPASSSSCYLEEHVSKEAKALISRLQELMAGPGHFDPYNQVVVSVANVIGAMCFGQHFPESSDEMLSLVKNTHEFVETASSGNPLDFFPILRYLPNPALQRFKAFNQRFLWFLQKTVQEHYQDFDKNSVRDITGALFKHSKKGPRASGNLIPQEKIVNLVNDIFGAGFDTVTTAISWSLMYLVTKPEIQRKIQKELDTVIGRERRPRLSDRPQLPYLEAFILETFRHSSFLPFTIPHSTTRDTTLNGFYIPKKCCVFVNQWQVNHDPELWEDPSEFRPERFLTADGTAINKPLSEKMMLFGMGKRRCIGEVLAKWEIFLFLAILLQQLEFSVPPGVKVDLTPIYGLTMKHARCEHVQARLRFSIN
In words: In vitro metabolism of pemigatinib by recombinant human CYP1A2. It counts as in vitro ADME. The method, then: (§1) In vitro metabolism studies were conducted to determine the human cytochrome P450 (CYP) isozyme(s) capable of metabolizing pemigatinib.
(§2) In vitro metabolism studies were conducted to determine the individual human recombinant CYP isozymes capable of metabolizing pemigatinib (1 μM) and included CYP1A2, CYP2B6, CYP2C8, CYP2C9, CYP2C19, CYP2D6, or CYP3A4.

The target in the next series is CYP2C19 (Homo sapiens, UniProt P33261). Kind of series: In vitro metabolism of pemigatinib by recombinant human CYP2C19. The format is in vitro ADME. The method, then:
as §1, §2

Series [1] can be described thus: Phase 1 drug-drug interaction study: safety and tolerability (TEAEs).
Procedure: In addition, this study also evaluates the safety and tolerability of pemigatinib when administered alone or in combination with itraconazole or rifampin. Safety and tolerability is assessed by monitoring adverse events, vital signs, physical examinations, 12-lead ECGs, and clinical laboratory blood and urine sample assessments. Pharmacokinetic endpoints include tmax, AUC0-t, AUC0-∞, t1/2, CL/F, and Vz/F.
Vital signs (oral temperature; respiratory rate; automated, seated blood pressure; and pulse) are obtained at screening, check-in, and follow-up; at 0 hour (predose) on Days 1 and 8; and at approximately 1, 2, 3, 6, and 24 hours after the morning dose on Day 4 and Day 9. Clinical safety laboratory assessments are performed at screening; on Days −1, 2, 5, 9, 10, and 11; and at follow-up. A serum pregnancy is obtained at screening and follow-up. A urine pregnancy test is obtained at check-in for each visit for all women. On Day 8, a 12-lead ECG is performed predose, 2 hours postdose, and approximately 24 hours postdose. On other days, 12-lead ECGs are performed only at predose.
Vital signs (oral temperature; respiratory rate; automated, seated blood pressure; and pulse) are obtained at screening, check-in and follow-up; at 0 hour (predose) on Days 1 and 11; and at approximately 1, 2, 3, 6, and 24 hours after the morning dose on Days 4, 10, and 12. Clinical safety laboratory assessments are performed at screening; on Days −1, 2, 8, and 13; and at follow-up. A serum pregnancy test is obtained at screening and follow-up. A urine pregnancy test is obtained at check-in for each visit for all women. On Day 11, a 12-lead ECG is performed predose, 2 hours postdose, and approximately 24 hours postdose. On other days, 12-lead ECGs is performed only at predose.
Series [2] in a line: Permeability of pemigatinib (statement, no method given). The format is in vitro ADME.
[3] abbreviates: Cohort 1 (n=18): pemigatinib 4.5 mg alone and with itraconazole.

Sequence of CYP2C19 (P33261 whole entry): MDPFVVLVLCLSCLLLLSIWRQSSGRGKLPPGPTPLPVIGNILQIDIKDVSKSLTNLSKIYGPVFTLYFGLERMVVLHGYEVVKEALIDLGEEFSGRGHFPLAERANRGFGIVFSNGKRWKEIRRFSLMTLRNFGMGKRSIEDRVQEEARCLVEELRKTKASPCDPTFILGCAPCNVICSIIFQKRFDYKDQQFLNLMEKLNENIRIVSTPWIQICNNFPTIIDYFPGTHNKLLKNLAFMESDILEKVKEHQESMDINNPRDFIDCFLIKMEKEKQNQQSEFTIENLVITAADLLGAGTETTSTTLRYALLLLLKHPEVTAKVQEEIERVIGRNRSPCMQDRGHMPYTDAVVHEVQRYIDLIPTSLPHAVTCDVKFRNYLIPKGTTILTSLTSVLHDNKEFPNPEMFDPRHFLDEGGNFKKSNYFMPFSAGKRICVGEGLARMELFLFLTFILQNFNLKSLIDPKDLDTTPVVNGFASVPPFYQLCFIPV

With `CCN1C(=O)N(c2c(F)c(OC)cc(OC)c2F)Cc2cnc3[nH]c(CN4CCOCC4)cc3c21` [Pemigatinib, 3-(2,6-difluoro-3,5-dimethoxyphenyl)-1-ethyl-8-(morpholin-4-ylmethyl)-1,3,4,7-tetrahydro-2H-pyrrolo[3′,2′: 5,6]pyrido[4,3-d]pyrimidin-2-one], the “Extent of in vitro metabolism by CYP1A2 (in words)” value at CYP1A2 is on record as “negligible”. Further, on CYP1A2 (recombinant CYP1A2, pemigatinib 1 μM, 30 min), the “Average Percent (N = 2) of Pemigatinib Remaining vs Control (30 mins)” value is recorded as 92%. Besides, the “Extent of in vitro metabolism by CYP2C19 (in words)” value on CYP2C19 is given as “negligible”. In addition, on CYP2C19 (recombinant CYP2C19, pemigatinib 1 μM, 30 min), the “Average Percent (N = 2) of Pemigatinib Remaining vs Control (30 mins)” value amounted to 95%. In series [1] (setting [3]), the “Dry mouth TEAE, %” value is reported as “(11.1) %”; the “Dry skin TEAE, %” value was “(11.1) %”; the “Headache TEAE, %” value is on record as “(16.7) %”; the “Nausea TEAE, %” value is reported as “(5.6) %”. In series [1] (setting [3]), the “Paraesthesia TEAE, %” value is “(0) %”; the “Rash papular TEAE, %” value is reported as “(11.1) %”; the “Somnolence TEAE, %” value is reported as “(11.1) %”; the “Vision blurred TEAE, %” value is reported as “(11.1) %”. In series [1] (both cohorts), the “Most common TEAE” value is reported as “headache”, the “Serious TEAEs or deaths” value is reported as “no serious TEAEs or deaths”, the “TEAEs of grade 3 or higher” value is “no TEAEs of grade 3 or high” and the “Treatment discontinuations or dose interruptions due to TEAEs” value is “no treatment discontinuations or dose interruptions due to TEAEs”. For the same compound, in series [1] (healthy male and female volunteers), the “Safety and tolerability (overall conclusion)” value was “safe and generally well tolerated”. The “Permeability of pemigatinib (in words)” value in series [2] is “high permeability”.
